# Like-named read-outs stand apart in the source and are kept apart here.
# How the values were obtained:
# [1] = Solubility in 40% w/w cyclodextrin solutions versus potassium phosphate buffer; format: physicochemical; conditions: thermodynamic from solid, room temperature (20-25° C.)
# Experimental: (§1) Aqueous solutions of cyclodextrin at pH 6.7-7.2 were prepared by dissolving 4 parts of cyclodextrins (hydroxypropyl α-cyclodextrin (HPACD), hydroxypropyl β-cyclodextrin (HPBCD), β-cyclodextrin (BCD), hydroxypropyl γ-cyclodextrin (HPGCD), or CAPTISOL) in 6 parts of potassium phosphate buffer (50 mM KH2PO4, pH 7.0), resulting solutions of 40% w/w cyclodextrins.
# as §1, with “(HPBCD),” for “(HPBCD), β-cyclodextrin (BCD),”
# [2] = Chemical stability of decitabine in cyclodextrin solutions (HPLC potency); format: physicochemical; conditions: 2-8° C. and 25° C., percentage of total peak areas at 220 nm, FIGS. 1 and 2
# Experimental: The chemical stability of decitabine in the cyclodextrin solutions and in the phophate buffer as prepared above was determined. The initial decitabine concentration for all the solutions was 17-18 mg/mL at the beginning of the experiment at 2-8° C.; 9-10 mg/mL at the beginning of the experiment at 25° C. Decitabine potency was assayed by a HPLC method, and expressed as a percentage of total peak areas at 220 nm.
# [3] = UV spectroscopy of decitabine-HPBCD complex formation; format: physicochemical; conditions: absorbance at 262 nm, room temperature, 1:1 stoichiometry assumed, least-squares fit
# [4] = cited from earlier work
# [5] = 40% w/w Captisol aqueous solution, aqueous with cosolvent or surfactant or cyclodextrin, 40% Captisol (w/w, pH 6.7)
# [6] = 40% w/w HPACD aqueous solution, aqueous with cosolvent or surfactant or cyclodextrin, 40% HPACD (w/w, pH 7.0)
# [7] = 40% w/w HPBCD aqueous solution, aqueous with cosolvent or surfactant or cyclodextrin, 40% HPBCD (w/w, pH 7.2)
# [8] = potassium phosphate buffer, aqueous buffer, KPi (50 mM KH2PO4, pH 7.0)
SMILES,"solubility [1, 5]","solubility [1, 6]","solubility [1, 7]","solubility ([1]; 40% w/w HPGCD aqueous solution, aqueous with cosolvent or surfactant or cyclodextrin, 40% HPGCD (w/w, pH 7.0))","solubility [1, 8]",Stability of decitabine in aqueous solution with cyclodextrins as excipients [2],Complex formation constant Kf for decitabine-HPBCD complex [3],Steady-state plasma concentration (estimated) ([4]; 6-hour infusion of 100 mg/m^2),Range of plasma concentrations ([4]; 600-mg/m^2 infusion),"Terminal half-life ([4]; humans, measured by bioassay)",Half-life after discontinuing the infusion ([4]; humans),"Total urinary excretion, % of the administered dose ([4]; humans)",Volume of distribution ([4]; humans),Steady-state plasma concentration (estimated) ([4]; infusion rate of 1 mg/kg/h),"Plasma concentration ([4]; infusion times of 40-60 hours, infusion rate 1 mg/kg/h)","Penetration into the cerebrospinal fluid, % of the plasma concentration ([4]; man, end of a 36-hour intravenous infusion)","Plasma concentration ([4]; patients, 100 mg/m^2 as a 3-hour infusion)"
Nc1ncn([C@@H]2O[C@H](CO)[C@@H](O)[C@H]2O)c(=O)n1 [5-azacytidine],26 mg/mL,20 mg/mL,26 mg/mL,22 mg/mL,19 mg/mL,–,–,–,–,–,–,–,–,–,–,–,–
"Nc1ncn([C@H]2C[C@H](O)[C@@H](CO)O2)c(=O)n1 [decitabine, 5-aza-2′-deoxycytidine]",42 mg/mL,18 mg/mL,44 mg/mL,–,18 mg/mL,dramatically improve the stability,23 M⁻¹,0.31 to 0.39 µg/mL,0.41 to 16 µg/mL,10 to 35 min,12 to 20 min,less than 1%,about 4.6 L/kg,0.2 to 0.5 µg/mL,430 to 760 ng/mL,14-21%,about 0.4 μg/ml

# Source: patent US20060128653A1, “Pharmaceutical formulation of decitabine” (priority 2004, published 2006)
